{"source": "patent US20170348253A1", "about": "“Treatment of Drug-Resistant Microbial Infections” (NovaBiotics Limited, priority 2016, published 2017)", "key": {"[1]": {"tested_on": "P. aeruginosa strain LES431", "test": "Neutropenic mouse thigh model of infection", "type": "in vivo, Pseudomonas aeruginosa", "settings": "for Log10 reduction in cfu/g: neutropoenic mice, thigh, 24 h post-treatment, compared with vehicle control", "experimental": "Mouse thigh infection model experiments were conducted at Eurofins Panlabs, (Taipei, Taiwan). Mice were rendered neutropoenic with cyclophosphamide prior to infection. They were separated into groups of 5 animals per treatment. […] Animals were sacrificed 25 h post infection (24 h post-treatment) and thigh weights and cfu/g of tissue were calculated and recorded."}, "P. aeruginosa": {"tested_on": "P. aeruginosa", "test": "Aberdeen clinical study: sputum microbiology, resistance profile of predominant pathogen", "type": "in vivo, Pseudomonas aeruginosa", "settings": "oral 450 mg once daily increased weekly to four times daily", "experimental": "(§1) Patients≧18 years of age, weighing>50 kg with stable CF lung disease were commenced on oral cysteamine bitartrate (Cystagon®) 450 mg once daily, increased weekly to 450 mg four times daily. Serial plasma cysteamine concentrations were measured for 24 h after the first dose. Participants were reviewed every week for 6 weeks, except at 4 weeks. Plasma cysteamine concentrations were measured 8 h after dosing when reviewed at 1, 2 and 3 weeks and 6 h after dosing when reviewed at 5 weeks. Sputum cysteamine concentration was also quantified at the 5-week assessment. Routine monitoring of clinical microbiology and reporting of speciation and resistance profile of major colonising microorganisms from patients continued as normal, prior to, during where necessary and after the trial by the hospital microbiology laboratory."}, "Staphylococcus aureus": {"tested_on": "Staphylococcus aureus", "test": "Aberdeen clinical study: sputum microbiology, resistance profile of predominant pathogen", "type": "in vivo", "set-up": "key: MRSA = Methicillin-resistant Staphylococcus aureus; MSSA = Methicillin-sensitive Staphylococcus aureus; PR = pan-resistant; S = sensitive; Cip^R = ciprofloxacin-resistant; Cip^S = ciprofloxacin sensitive", "settings": "Patient 1, stable CF lung disease, oral 450 mg once daily increased weekly to four times daily; pre trial MRSA", "experimental": "as §1"}}}
{"molecule": "Colistin", "values": [{"measurement": "Log10 reduction in cfu/g", "setting": "[1]; 5 mg/kg SC", "result": 5.02, "unit": "log10 cfu/g"}]}
{"molecule": "NCCS", "note": "[Cysteamine, cysteamine]", "values": [{"measurement": "Effect of cysteamine on the activity of ciprofloxacin", "setting": "[1]; neutropenic mouse thigh model, cysteamine 1.25 mg/kg with ciprofloxacin 15 mg/kg", "result": "chemopotentiates the activity of ciprofloxacin"}, {"measurement": "Log10 reduction in cfu/g", "setting": "[1]; 1.25 mg/kg i.v.", "result": 0.74, "unit": "log10 cfu/g"}]}
{"molecule": "NCCS.O=C(O)C(O)C(O)C(=O)O", "note": "(stereo not shown) [cysteamine bitartrate]", "values": [{"measurement": "Post trial microbiology (predominant pathogen in sputum)", "setting": "P. aeruginosa; Patient 2, stable CF lung disease, pre trial PR P. aeruginosa", "result": "S P. aeruginosa"}, {"measurement": "Post trial microbiology (predominant pathogen in sputum)", "setting": "P. aeruginosa; Patient 3, stable CF lung disease, pre trial Cip^R P. aeruginosa", "result": "Cip^S P. aeruginosa"}, {"measurement": "Post trial microbiology (predominant pathogen in sputum)", "setting": "Staphylococcus aureus", "result": "MSSA"}]}
{"molecule": "O=C(O)c1cn(C2CC2)c2cc(N3CCNCC3)c(F)cc2c1=O", "note": "[Ciprofloxacin]", "values": [{"measurement": "Log10 reduction in cfu/g", "setting": "[1]; 15 mg/kg i.v.", "result": 2.02, "unit": "log10 cfu/g"}]}
